Results taken from patent US20240293558A1, “KRAS INHIBITOR CONJUGATES” (Erasca, Inc., priority 2021, published 2024).

How the values were obtained:
[1] = target: KRAS G12D (Homo sapiens, UniProt P01116, G12D); assay: In-vitro RAS-RAF binding assay (RRB), HTRF/FRET; format: biochemical; design: Biotinylated KRAS protein amino acids 1-169 (produced at Erasca); made in house; conditions: Table 2, average of multiple runs of each compound; read-out: Inhibition of RAS-RAF Binding (in-vitro) KRAS (G12D) IC50
Sequence of KRAS G12D (P01116 1-169 isoform P01116-2 G12D): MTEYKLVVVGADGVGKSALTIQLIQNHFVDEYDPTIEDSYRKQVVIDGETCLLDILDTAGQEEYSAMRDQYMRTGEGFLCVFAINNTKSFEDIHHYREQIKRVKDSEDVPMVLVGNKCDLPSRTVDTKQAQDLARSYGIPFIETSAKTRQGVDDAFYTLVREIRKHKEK
In short: (§1)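 Biotinylated KRAS 1-169 (streptavidin-terbium donor, 30 nM) and GST-cRAF RBD (anti-GST d2 acceptor, 30 nM) in HEPES pH 7.5, NaCl, MgCl2, DTT buffer. After compound incubation, SOS1 catalytic domain plus GTPgS drive 60 min nucleotide exchange. HTRF FRET read at equilibrium, in duplicate.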

[2] = target: T1, KRAS (WT) (Homo sapiens, UniProt P01116); assay: In-vitro RAS-RAF binding assay (RRB), HTRF/FRET; format: biochemical; conditions: Table 2, average of multiple runs of each compound; read-out: Inhibition of RAS-RAF Binding (in-vitro) KRAS (WT) IC50
T1 construct: Biotinylated KRAS protein amino acids 1-169 (produced at Erasca); made in house
T1 sequence (P01116 1-169 isoform P01116-2): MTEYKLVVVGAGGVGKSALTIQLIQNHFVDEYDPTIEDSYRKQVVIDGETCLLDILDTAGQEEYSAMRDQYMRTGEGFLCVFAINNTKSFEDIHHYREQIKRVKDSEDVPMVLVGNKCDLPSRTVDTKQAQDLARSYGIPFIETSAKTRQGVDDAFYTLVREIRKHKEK
In short: as §1

[3] = target: T2, KRas G12D fused to HiBiT peptide (Homo sapiens, UniProt P01116, G12D); assay: ASPC-1 HiBit assay to determine G12D degradation; format: cell-based; conditions: AsPC-1 HiBiT cells, 24-hour incubation; read-out: ASPC-1 HiBit DC50 (C)
T2 construct: endogenous in cells; host or cells: AsPC-1 HiBiT knock-in single clone (Cas9 RNP + ssODN)
T2 sequence (P01116 1-188 isoform P01116-2 G12D): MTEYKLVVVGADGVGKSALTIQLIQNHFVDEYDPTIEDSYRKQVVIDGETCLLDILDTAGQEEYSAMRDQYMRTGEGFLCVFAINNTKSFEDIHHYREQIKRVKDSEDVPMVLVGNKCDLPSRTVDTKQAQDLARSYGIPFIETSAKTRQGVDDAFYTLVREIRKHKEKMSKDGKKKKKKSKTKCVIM
In short: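 Homozygous AsPC-1 clone with N-terminal HiBiT knock-in on endogenous KRas G12D, 24 h compound exposure, top dose 10 μM, 3-fold, 10 points, 1% DMSO. Lytic HiBiT luminescence normalised to DMSO and inhibitor controls gives % degradation; DC50 from 4-parameter fit after hook-effect points removed.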

Structure (SMILES)	IC50 [1] [nM]	IC50 [2] [nM]	DC50 [3] [nM]
C[C@H](NC(=O)[C@@H]1C[C@@H](O)CN1C(=O)[C@@H](NC(=O)CCOCCCN1CCC[C@H]1COc1nc(N2CC3CCC(C2)N3)c2cc(C(F)(F)F)c(-c3ccc(F)c4sc(N)c(C#N)c34)c(F)c2n1)C(C)(C)C)c1ccc(-c2c(F)cc(F)cc2F)cc1 [Example 92, (2S,4R)-1-((2S)-2-(3-(3-((2S)-2-((((7S)-7-(2-amino-3-cyano-7-fluorobenzo[b]thiophen-4-yl)-4-(3,8-diazabicyclo[3.2.1]octan-3-yl)-8-fluoro-6-(trifluoromethyl)quinazolin-2-yl)oxy)methyl)pyrrolidin-1-yl)propoxy)propanamido)-3,3-dimethylbutanoyl)-4-hydroxy-N—((S)-1-(2′,4′,6′-trifluoro-[1,1′-biphenyl]-4-yl)ethyl)pyrrolidine-2-carboxamide]	8.9	52	49
C[C@H](NC(=O)[C@@H]1C[C@@H](O)CN1C(=O)[C@@H](NC(=O)CCOCCCN1CCC[C@H]1COc1nc(N2CC3CCC(C2)N3)c2cc(C(F)(F)F)c(-c3ccc(F)c4sc(N)c(C#N)c34)c(F)c2n1)C(C)(C)C)c1ccc(-c2ccccc2Cl)cc1 [Example 95, (2S,4R)-1-((2S)-2-(3-(3-((2S)-2-((((7S)-7-(2-amino-3-cyano-7-fluorobenzo [b]thiophen-4-yl)-4-(3,8-diazabicyclo [3.2.1]octan-3-yl)-8-fluoro-6-(trifluoromethyl)quinazolin-2-yl)oxy)methyl)pyrrolidin-1-yl)propoxy)propanamido)-3,3-dimethylbutanoyl)-N—((S)-1-(2′-chloro-[1,1′-biphenyl]-4-yl)ethyl)-4-hydroxypyrrolidine-2-carboxamide]	8.5	65	43
C[C@H](NC(=O)[C@@H]1C[C@@H](O)CN1C(=O)[C@@H](NC(=O)CCOCCCN1CCC[C@H]1COc1nc(N2CC3CCC(C2)N3)c2cc(Cl)c(-c3ccc(F)c4sc(N)c(C#N)c34)c(F)c2n1)C(C)(C)C)c1ccc(-c2ccccc2Cl)cc1 [Example 96, (2S,4R)-1-((2S)-2-(3-(3-((2S)-2-((((7R)-7-(2-amino-3-cyano-7-fluorobenzo[b]thiophen-4-yl)-4-(3,8-diazabicyclo[3.2.1]octan-3-yl)-6-chloro-8-fluoroquinazolin-2-yl)oxy)methyl)pyrrolidin-1-yl)propoxy)propanamido)-3,3-dimethylbutanoyl)-N—((S)-1-(2′-chloro-[1,1′-biphenyl]-4-yl)ethyl)-4-hydroxypyrrolidine-2-carboxamide]	9.2	156	75
C#Cc1c(F)ccc2cc(O)cc(-c3ncc4c(N5CC6CCC(C5)N6)nc(OCCN5CCC(Oc6cc([C@H](C(=O)N7C[C@H](O)C[C@H]7C(=O)N[C@@H](C)c7ccc(-c8c(F)cccc8F)cc7)C(C)C)on6)CC5)nc4c3F)c12 [Example 100, (2S,4R)-1-((2R)-2-(3-((1-(2-((4-(3,8-diazabicyclo[3.2.1]octan-3-yl)-7-(8-ethynyl-7-fluoro-3-hydroxynaphthalen-1-yl)-8-fluoropyrido[4,3-d]pyrimidin-2-yl)oxy)ethyl)piperidin-4-yl)oxy)isoxazol-5-yl)-3-methylbutanoyl)-N—((S)-1-(2′,6′-difluoro-[1,1′-biphenyl]-4-yl)ethyl)-4-hydroxypyrrolidine-2-carboxamide]	14	2070	197
C#Cc1c(F)ccc2cc(O)cc(-c3ncc4c(N5CC6CCC(C5)N6)nc(OCCN5CCC6(C5)CN(c5cc([C@H](C(=O)N7C[C@H](O)C[C@H]7C(=O)N[C@@H](C)c7ccc(-c8c(F)cccc8F)cc7)C(C)C)on5)C6)nc4c3F)c12 [Example 101, (2S,4R)-1-((2R)-2-(3-(6-(2-((4-(3,8-diazabicyclo[3.2.1]octan-3-yl)-7-(8-ethynyl-7-fluoro-3-hydroxynaphthalen-1-yl)-8-fluoropyrido[4,3-d]pyrimidin-2-yl)oxy)ethyl)-2,6-diazaspiro[3.4]octan-2-yl)isoxazol-5-yl)-3-methylbutanoyl)-N—((S)-1-(2′,6′-difluoro-[1,1′-biphenyl]-4-yl)ethyl)-4-hydroxypyrrolidine-2-carboxamide]	13	1790	707

The remaining compounds from weak to strong by IC50 [1], led by results:

IC50 [1] [nM]	IC50 [2] [nM]	DC50 [3] [nM]	Structure (SMILES)
16	1430	107	C#Cc1c(F)ccc2cc(O)cc(-c3ncc4c(N5CC6CCC(C5)N6)nc(OCCN5CCC6(CC5)CN(c5cc([C@H](C(=O)N7C[C@H](O)C[C@H]7C(=O)N[C@@H](C)c7ccc(-c8cccc(F)c8F)cc7)C(C)C)on5)C6)nc4c3F)c12 [Example 98, (2S,4R)-1-((2R)-2-(3-(7-(2-((4-(3,8-diazabicyclo[3.2.1]octan-3-yl)-7-(8-ethynyl-7-fluoro-3-hydroxynaphthalen-1-yl)-8-fluoropyrido[4,3-d]pyrimidin-2-yl)oxy)ethyl)-2,7-diazaspiro[3.5]nonan-2-yl)isoxazol-5-yl)-3-methylbutanoyl)-N—((S)-1-(2′,3′-difluoro-[1,1′-biphenyl]-4-yl)ethyl)-4-hydroxypyrrolidine-2-carboxamide]
16	1610	264	C#Cc1c(F)ccc2cc(O)cc(-c3ncc4c(N5CC6CCC(C5)N6)nc(OCCN5CCC6(CC5)CN(c5cc([C@H](C(=O)N7C[C@H](O)C[C@H]7C(=O)N[C@@H](C)c7ccc(-c8ccccc8Cl)cc7)C(C)C)on5)C6)nc4c3F)c12 [Example 99, (2S,4R)-1-((2R)-2-(3-(7-(2-((4-(3,8-diazabicyclo[3.2.1]octan-3-yl)-7-(8-ethynyl-7-fluoro-3-hydroxynaphthalen-1-yl)-8-fluoropyrido[4,3-d]pyrimidin-2-yl)oxy)ethyl)-2,7-diazaspiro[3.5]nonan-2-yl)isoxazol-5-yl)-3-methylbutanoyl)-N—((S)-1-(2′-chloro-[1,1′-biphenyl]-4-yl)ethyl)-4-hydroxypyrrolidine-2-carboxamide]
9.2	67	38	C[C@H](NC(=O)[C@@H]1C[C@@H](O)CN1C(=O)[C@@H](NC(=O)CCOCCCN1CCC[C@H]1COc1nc(N2CC3CCC(C2)N3)c2cc(C(F)(F)F)c(-c3ccc(F)c4sc(N)c(C#N)c34)c(F)c2n1)C(C)(C)C)c1ccc(-c2cccc(F)c2F)cc1 [Example 94, (2S,4R)-1-((2S)-2-(3-(3-((2S)-2-((((7S)-7-(2-amino-3-cyano-7-fluorobenzo [b]thiophen-4-yl)-4-(3,8-diazabicyclo[3.2.1]octan-3-yl)-8-fluoro-6-(trifluoromethyl)quinazolin-2-yl)oxy)methyl)pyrrolidin-1-yl)propoxy)propanamido)-3,3-dimethylbutanoyl)-N—((S)-1-(2′,3′-difluoro-[1,1′-biphenyl]-4-yl)ethyl)-4-hydroxypyrrolidine-2-carboxamide]
9.1	54	34	C[C@H](NC(=O)[C@@H]1C[C@@H](O)CN1C(=O)[C@@H](NC(=O)CCOCCCN1CCC[C@H]1COc1nc(N2CC3CCC(C2)N3)c2cc(C(F)(F)F)c(-c3ccc(F)c4sc(N)c(C#N)c34)c(F)c2n1)C(C)(C)C)c1ccc(-c2c(F)ccc(F)c2F)cc1 [Example 93, (2S,4R)-1-((2S)-2-(3-(3-((2S)-2-((((7S)-7-(2-amino-3-cyano-7-fluorobenzo [b]thiophen-4-yl)-4-(3,8-diazabicyclo [3.2.1]octan-3-yl)-8-fluoro-6-(trifluoromethyl)quinazolin-2-yl)oxy)methyl)pyrrolidin-1-yl)propoxy)propanamido)-3,3-dimethylbutanoyl)-4-hydroxy-N—((S)-1-(2′,3′,6′-trifluoro-[1,1′-biphenyl]-4-yl)ethyl)pyrrolidine-2-carboxamide]
8.2	23	23	Cc1ncsc1-c1ccc([C@H](C)NC(=O)[C@@H]2C[C@@H](O)CN2C(=O)[C@@H](NC(=O)CCOCCCN2CCC[C@H]2COc2nc(N3CC4CCC(C3)N4)c3cc(C(F)(F)F)c(-c4ccc(F)c5sc(N)c(C#N)c45)c(F)c3n2)C(C)(C)C)cc1 [Example 91, (2S,4R)-1-((2S)-2-(3-(3-((2S)-2-((((7S)-7-(2-amino-3-cyano-7-fluorobenzo[b]thiophen-4-yl)-4-(3,8-diazabicyclo[3.2.1]octan-3-yl)-8-fluoro-6-(trifluoromethyl)quinazolin-2-yl)oxy)methyl)pyrrolidin-1-yl)propoxy)propanamido)-3,3-dimethylbutanoyl)-4-hydroxy-N—((S)-1-(4-(4-methylthiazol-5-yl)phenyl)ethyl)pyrrolidine-2-carboxamide]
